Assay results published in US10071063B2, “Specific mTOR inhibitors in the treatment of X-linked adrenoleukodystrophy” (FUNDACIÓN DE LA COMUNIDAD VALENCIANA CENTRO DE …, priority 2014, dated 2018).
Like-named read-outs stand apart in the source and are kept apart here.

Experiments:
[1] = tested on: control and X-ALD fibroblasts; assay: Immunoblot of LC3-II and p62 in fibroblasts treated or not with VLCFA; format: cell-based, human; settings: excess of VLCFA
Method: (§1) Skin biopsies to prepare fibroblasts were collected according to the institutional guidelines for sampling, including informed consent from the persons involved or their representatives. Primary human fibroblasts were cultured in DMEM (containing 10% fetal bovine serum, 100 U/ml penicillin and 100 μg streptomycin) at 37° C. in humidified 5% CO2/95% air. Unless otherwise stated, experiments were carried out with cells at 80% confluence. For starvation conditions (high proteolysis medium, H), cells were switched, after washing, from full growth medium (see above, low proteolysis medium, L) to Krebs-Henseleit medium (118.4 mM NaCl, 4.75 mM KCl, 1.19 mM KH2PO4, 2.54 mM MgSO4, 2.44 mM CaCl2.2H2O, 28.6 mM NaHCO3, 10 mM glucose) containing 10 mM Hepes, pH 7.4 (high proteolysis medium, H) and incubated for 4 h or less at 37° C.
(§2) Tissues were removed from euthanized mice and flash-frozen on liquid nitrogen. Frozen tissues and human fibroblasts samples were homogenized in RIPA buffer (Cell Signaling Technology) using a motor-driven grinder (Sigma-Aldrich), and then sonicated for 2 min at 4° C. in an Ultrasonic processor UP50H (Hielscher-Ultrasound Technology). Samples were subjected to polyacrylamide (10% acrylamide) gel electrophoresis for 60 min at […]. Resolved proteins were transferred onto nitrocellulose membranes and proteins were detected with ECL Western blotting analysis system followed by exposure to CL-XPosure Film (Thermo Scientific). Autoradiographs were scanned and quantified using a GS800 Densitometer (Bio-Rad).
Then, the LC3-II and p62 levels in cell extracts from control and X-ALD fibroblasts treated or not with VLCFA were determined by immunoblot analysis.

[2] = tested on: control and X-ALD patient fibroblasts; assay: Pulse-chase degradation of long-lived proteins in fibroblasts treated with VLCFA; format: cell-based, human; settings: C26:0 50 μM 24 h, high proteolysis medium; for inhibition at 50 µM: Homo sapiens, Fibroblast, control fibroblasts
Method: as §1
For pulse-chase experiments, human control and X-ALD patient fibroblasts were incubated for 48 h in fresh full medium with 1 μCi/ml [3H]valine (Hartmann Analytic Gmbh), followed by a 24 h chase in fresh full medium containing 10 mM L-valine to degrade short-lived proteins. Then, all cultures were incubated for the indicated times in Krebs-Henseleit medium with 10 mM Hepes, pH 7.4, containing 10 mM valine and the indicated additions. Protein degradation, which was analysed 1 h later to ensure maximal effects of the various additions and for only 3 h to avoid possible secondary effects, was calculated at two intervals of 1.5 h by measuring the net release of trichloroacetic acid-soluble radioactivity from the labelled cells into the culture medium and expressed as percentage of protein degraded. The contribution of lysosomal degradation to total protein degradation was calculated using 20 mM NH4Cl (Sigma-Aldrich) plus 100 μM leupeptin (Peptide Institute), as previously described (Fuertes G, et al, 2003, Biochem J 375, 75-86).
In X-ALD, VLCFA accumulate. The effect of the addition of an excess of hexacosanoic acid to fibroblasts isolated from controls and X-ALD patients was tested. First, the degradation of intracellular proteins was analyzed to determine if it was any alteration in control and X-ALD fibroblasts upon addition of an excess of VLCFA, by analyzing in pulse-chase experiments the degradation of long-lived proteins under starvation. Total protein degradation and also, separately, lysosomal protein degradation were estimated by procedures previously described (Fuertes G, et al, 2003, Biochem J 375, 75-86).

[3] = cited from earlier work
Abcd1−/−/Abcd2−/− mice [4] = assay: Bar cross test; format: in vivo, mouse; settings: Abcd1−/−/Abcd2−/− mice at 20 months of age
[5] = tested on: Abcd1−/− mouse spinal cord; assay: Oxidized proteins, ATP levels, proteasome activity and immunoproteasome subunits in spinal cord of temsirolimus-treated Abcd1−/− mice; format: in vivo; settings: temsirolimus 20 mg/kg i.p.
From the text: (§3) All methods employed in this study were in accordance with the Guide for the Care and Use of Laboratory Animals published by the US National Institutes of Health (NIH publication No. 85-23, revised 1996) and the ethical committees of IDIBELL and the Generalitat de Catalunya. The generation and genotyping of Abcd1 null mice have been previously described. Mice used for experiments were on a pure C57BL/6J background. Abcd1 null and wild type mice were separated into control and treated groups. Temsirolimus (LC laboratories) was administered by intraperitoneal injections three times a week at a dose of 20 mg/kg for 3 months with alternate 3-weeks rest periods between each month of treatment. Control mice were given a placebo injection containing buffer only with the same frequency. Treadmill test was carried out exactly as previously described (López-Erauskin J, et al, 2011, Ann Neurol 70, 84-92). The latency to falling off the belt (time of shocks in seconds) and the number of received shocks were measured. Bar cross test was performed as previously described (López-Erauskin J, et al, 2011, Ann Neurol 70, 84-92). Placebo and drug treated mice within each litter were tested on the treadmill simultaneously and at the time of testing were not identified as to their treatment status.
Total RNA was isolated from homogenized spinal cord using the RNeasy mini kit (Qiagen), according to the manufacturer's instructions. RNA samples with RNA Integrity Number (RIN) above 8 and 28S/18S ratio higher than 1 were used for the experiments. Then, first strand cDNA was synthesized for each RNA sample using Superscript II reverse transcriptase (Invitrogen) and random primers. The expression of the candidate proteasome genes was analysed by RQ-PCR using TaqMan® Gene Expression Assays (Applied Biosystems).
Relative quantitation was carried out using the ‘Delta-Delta Ct’ (ΔΔCt) method with tubby RNA as endogenous control. Transcript quantification was performed in duplicate for each sample.
as §2
ATP levels were measured as previously described (Galino J, et al 2011, Antioxid Redox Signal 15, 2095-2107). For proteasome activity assays, tissues were homogenized in an ice-cold buffer (50 mM Tris-HCl pH 7.5, 1 mM dithiothreitol, 0.25 M sucrose, 5 mM MgCl2, 0.5 mM EDTA with 2 mM ATP), using a teflon-on-glass homogenizer, and centrifuged at 12,000×g for 10 min. Chymotrypsin-like activity of proteasomes was determined as described (Launay N, et el, 2013 Brain 136, 891-904), using Suc-LLVY-AMC as substrate. […] The free AMC fluorescence was quantified with a fluorescence multiplate FLUOstar OPTIMA FL reader (BMG) with excitation and emission wavelengths at 380 and 460 nm, respectively. […] All reactions were carried out in duplicate and readings were calibrated using standard solutions of the fluorophores.

mTOR = assay: p70S6K phosphorylation (mTOR activity) by Western blot in spinal cord of treated Abcd1−/− mice; format: in vivo, mouse; settings: temsirolimus 20 mg/kg i.p. three times a week, 3 months with rest periods
From the text: as §3, with “Bar cross test was performed as previously described (López-Erauskin J, et al, 2011, Ann Neurol 70, 84-92). Placebo and drug treated mice within each litter were tested on the treadmill simultaneously and at the time of testing were not identified as to their treatment status.” left out
(§4) Tissues were removed from euthanized mice and flash-frozen on liquid nitrogen. […] Resolved proteins were transferred onto nitrocellulose membranes and proteins were detected with ECL Western blotting analysis system followed by exposure to CL-XPosure Film (Thermo Scientific). Autoradiographs were scanned and quantified using a GS800 Densitometer (Bio-Rad).

Abcd1−/−/Abcd2−/− mice [6] = assay: Treadmill test; format: in vivo, mouse; settings: Abcd1−/−/Abcd2−/− mice at 20 months of age
Abcd1−/−/Abcd2−/− mice [7] = assay: Immunohistochemistry of axonal degeneration markers in spinal cord of Abcd1−/−/Abcd2−/− mice; format: in vivo, mouse
From the text: as §3
Spinal cords were harvested from 20-month-old mice (wild type, Abcd1−/−/Abcd2−/− and Abcd1−/−/Abcd2−/− treated with temsirolimus), after perfusion with 4% paraformaldehyde and prepared and incubated for immunohistochemistry as described (López-Erauskin J, et al, 2011. Ann Neurol 70, 84-92).

[8] = tested on: Abcd1−/− mouse spinal cord; assay: Western blot of autophagy markers LC3-II and p62 in spinal cord of treated Abcd1−/− mice; format: in vivo; settings: temsirolimus 20 mg/kg i.p. three times a week, 3 months with rest periods
From the text: as §3, with “Bar cross test was performed as previously described (López-Erauskin J, et al, 2011, Ann Neurol 70, 84-92). Placebo and drug treated mice within each litter were tested on the treadmill simultaneously and at the time of testing were not identified as to their treatment status.” left out
as §4

Abcd1 null mice = assay: Dose tests of temsirolimus in Abcd1 null mice (body response, weight); format: in vivo, mouse
From the text: as §3
10 month-old Abcd1 null mice were treated with temsirolimus, or vehicle (control), administered by intraperitoneal injection as described previously. Doses tests in order to check mice's body response was firstly performed. […] Thus, to prevent side effects other treatment conditions: intraperitoneal injections of temsirolimus for 3 months with alternate 3-weeks rest periods between each month of treatment, were tested.

[9] = RT-PCR, Abcd1−/− mouse spinal cord
[10] = spinal cord, 20-month-old Abcd1−/−/Abcd2−/− mice, to control levels
[11] = spinal cord, Abcd1−/−/Abcd2−/− mice, to control levels, data not shown
[12] = intraperitoneal injections for 3 months with alternate 3-weeks rest periods between each month

CCCCCCCCCCCCCCCCCCCCCCCCCC(=O)O [VLCFA, Hexacosanoic acid]
LC3-II levels ([1]; X-ALD fibroblasts): no significant differences
p62 levels ([1]; X-ALD fibroblasts): no significant differences
LC3-II levels ([1]; control fibroblasts): marked decrease
p62 levels ([1]; control fibroblasts): increase
inhibition at 50 µM ([2]; read-out: inhibition of lysosomal degradation of long-lived proteins): ~40%
inhibition at 50 µM ([2]; read-out: inhibition of total degradation of long-lived proteins): ~15%
inhibition of lysosomal degradation of long-lived proteins ([2]; X-ALD fibroblasts): no significant inhibitions
inhibition of total degradation of long-lived proteins ([2]; X-ALD fibroblasts): no significant inhibitions

CO[C@H]1C[C@@H]2CC[C@@H](C)[C@@](O)(O2)C(=O)C(=O)N2CCCC[C@H]2C(=O)O[C@H]([C@H](C)C[C@@H]2CC[C@@H](O)[C@H](OC)C2)CC(=O)[C@H](C)/C=C(\C)[C@@H](O)[C@@H](OC)C(=O)[C@H](C)C[C@H](C)/C=C/C=C/C=C/1C [rapamycin]
water solubility [3]: poor

CO[C@H]1C[C@@H]2CC[C@@H](C)[C@@](O)(O2)C(=O)C(=O)N2CCCC[C@H]2C(=O)O[C@H]([C@H](C)C[C@@H]2CC[C@@H](OC(=O)C(C)(CO)CO)[C@H](OC)C2)CC(=O)[C@H](C)/C=C(\C)[C@@H](O)[C@@H](OC)C(=O)[C@H](C)C[C@H](C)/C=C/C=C/C=C/1C [temsirolimus, (3S,6R,7E,9R,10R,12R, 14S,15E,17E,19E,21S,23S,26R,27R,34aS)-9,10,12,13,14,21,22,23,24,25,26,27,32,33,34,34a-Hexa deca hydro-9,27-dihydroxy-3-[(1R)-2-[1S,3R,4R)-4-hydroxy-3-methoxycyclohexyl]-10,21-dimethoxy-6,8,12,14,20,26-hexa meth 3H-pyrido [2,1-][1,4]oxa azaclo hentriacontine-1,5,11,28,29(4H,6H,31H)-pentone 4′-[2,2-bis (hydroxymethyl)propionate]]
number of slips (Abcd1−/−/Abcd2−/− mice [4]): normalized
time needed to cross the bar (Abcd1−/−/Abcd2−/− mice [4]): normalized
chymotrypsin-like proteasome activity ([5]; Abcd1−/− mouse spinal cord lysates): normalized
ATP levels ([5]; Abcd1−/− mouse spinal cord): normalizing
levels of oxidized proteins ([5]; Abcd1−/− mouse spinal cord): reduced considerably
induction of immunoproteasome subunit β1i/LMP2 [5, 9]: prevented the induction
induction of immunoproteasome subunit β5i/LMP7 [5, 9]: prevented the induction
immunoreactivity for total p70S6K (mTOR): did not change
phosphorylated p70S6K (mTOR): decrease
ratio between the time length of the shocks and the number of shocks (Abcd1−/−/Abcd2−/− mice [6]): normalized
motor neurons health in spinal cord (Abcd1−/−/Abcd2−/− mice [7]; XALD mice): improve
accumulation of APP (axonal damage marker) (Abcd1−/−/Abcd2−/− mice [7]; [10]): reduced
accumulation of synaptophysin (axonal damage marker) (Abcd1−/−/Abcd2−/− mice [7]; [10]): reduced
DNA oxidation (Abcd1−/−/Abcd2−/− mice [7]; [11]): reduced
number of reactive astrocytes (Abcd1−/−/Abcd2−/− mice [7]; [11]): reduced
number of reactive microglia (Abcd1−/−/Abcd2−/− mice [7]; [11]): reduced
LC3-II levels [8]: up-
p62 levels [8]: down regulated
body weight (Abcd1 null mice; continuous administration during 3 months, intraperitoneal, data not shown): important weight losses
body weight (Abcd1 null mice; [12]): without significant weight loss
locomotor performances (Abcd1 null mice; [12]): better
